# Laboratory results reported in ChEMBL document CHEMBL1201862, “PubChem BioAssay data set” (2004).
# Activity calls are given as the source filed them.
# Experiments:
# [1] = A cytotoxicity screen of small molecule inhibitors of the PhoP region in Salmonella typhi identified in the primary screen. [Related pubchem assays: 1850, 1864, 1985 ]; format: functional
# [2] = target: Cytochrome P450 3A4 (Homo sapiens, UniProt P08684); settings: Potency;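 also: confirmatory qHTS run detecting inhibitors and substrates of CYP3A4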
# Chain of Cytochrome P450 3A4 (P08684 whole entry): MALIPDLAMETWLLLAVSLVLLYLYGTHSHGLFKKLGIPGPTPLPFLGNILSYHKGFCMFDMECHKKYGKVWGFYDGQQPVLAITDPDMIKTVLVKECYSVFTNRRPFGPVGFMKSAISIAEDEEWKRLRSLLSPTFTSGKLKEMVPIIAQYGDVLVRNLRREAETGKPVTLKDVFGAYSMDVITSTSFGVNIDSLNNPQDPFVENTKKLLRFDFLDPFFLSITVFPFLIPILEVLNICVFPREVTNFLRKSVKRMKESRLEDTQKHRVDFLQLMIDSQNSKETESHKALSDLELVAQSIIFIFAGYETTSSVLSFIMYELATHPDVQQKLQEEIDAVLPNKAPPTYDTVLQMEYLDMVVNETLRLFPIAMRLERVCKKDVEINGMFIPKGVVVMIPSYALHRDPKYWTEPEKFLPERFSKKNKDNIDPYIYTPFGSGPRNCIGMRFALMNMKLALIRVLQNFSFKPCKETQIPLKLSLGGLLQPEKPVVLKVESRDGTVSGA
# [3] = Luminescence Cell-Based Dose Retest to Confirm Inhibitors of Cancer Stem Cells. [Related pubchem assays (depositor defined):AID2717, AID2721]; format: functional; settings: Homo sapiens
# [4] = viability loss of HPDE-C7K cells – cell-based, fluorescence, HTS, primary screen (AID 431); format: functional; settings: Homo sapiens
# [5] = HPDE-C7 pancreatic duct cell viability loss – fluorescence, HTS (AID 430); format: functional, cell-based; settings: Homo sapiens
# [6] = target: T1, Aspartyl aminopeptidase (Plasmodium falciparum 3D7, UniProt Q8I2J3); test: Counterscreen for inhibitors of M1 and M17 aminopeptidases: QFRET-based biochemical high throughput dose response assay for inhibitors of the Plasmodium falciparum M18 Aspartyl Aminopeptidase (PFM18AAP). [Related PubChem assays: 1619 (Screening assay (M17LAP inhibitors).), 1445 (Screening assay (M1AAP inhibitors).)]
# T1 sequence (Q8I2J3 whole entry): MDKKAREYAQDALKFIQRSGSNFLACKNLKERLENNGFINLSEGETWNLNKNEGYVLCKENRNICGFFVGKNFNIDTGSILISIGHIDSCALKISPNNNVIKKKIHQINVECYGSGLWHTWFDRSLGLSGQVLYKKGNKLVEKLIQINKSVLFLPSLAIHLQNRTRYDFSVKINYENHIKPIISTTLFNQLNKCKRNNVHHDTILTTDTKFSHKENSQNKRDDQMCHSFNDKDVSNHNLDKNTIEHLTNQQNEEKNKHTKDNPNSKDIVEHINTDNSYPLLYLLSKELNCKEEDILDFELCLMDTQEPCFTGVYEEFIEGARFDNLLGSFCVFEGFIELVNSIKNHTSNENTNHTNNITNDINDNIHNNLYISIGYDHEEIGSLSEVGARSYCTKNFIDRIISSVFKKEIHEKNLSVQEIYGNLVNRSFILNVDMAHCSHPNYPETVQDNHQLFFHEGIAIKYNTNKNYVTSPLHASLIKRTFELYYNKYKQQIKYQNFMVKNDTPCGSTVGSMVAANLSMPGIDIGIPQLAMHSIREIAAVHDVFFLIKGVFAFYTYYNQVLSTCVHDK
# [7] = target: T2, Leucine aminopeptidase (Plasmodium falciparum 3D7, UniProt Q8IL11); test: P. falciparum M17LAP inhibitors, primary screen, biochemical, fluorogenic H-Leu-NHMec substrate, 1536-well (AID 1619); format: functional
# T2 sequence (Q8IL11 whole entry): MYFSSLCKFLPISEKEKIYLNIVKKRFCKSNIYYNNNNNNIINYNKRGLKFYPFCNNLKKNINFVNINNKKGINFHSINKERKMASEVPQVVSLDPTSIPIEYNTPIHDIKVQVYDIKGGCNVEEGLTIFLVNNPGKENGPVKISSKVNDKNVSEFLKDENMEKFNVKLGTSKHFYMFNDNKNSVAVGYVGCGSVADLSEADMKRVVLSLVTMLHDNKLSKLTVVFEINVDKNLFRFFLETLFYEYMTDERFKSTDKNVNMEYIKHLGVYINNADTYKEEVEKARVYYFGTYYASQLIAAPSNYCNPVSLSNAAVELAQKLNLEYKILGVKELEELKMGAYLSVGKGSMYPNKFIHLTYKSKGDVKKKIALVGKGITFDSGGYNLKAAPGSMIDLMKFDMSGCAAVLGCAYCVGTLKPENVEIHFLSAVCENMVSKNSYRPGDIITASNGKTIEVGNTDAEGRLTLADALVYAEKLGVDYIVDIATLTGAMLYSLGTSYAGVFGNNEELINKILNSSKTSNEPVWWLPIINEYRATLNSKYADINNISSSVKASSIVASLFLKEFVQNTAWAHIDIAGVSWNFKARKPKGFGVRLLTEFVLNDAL
# [8] = target: Procathepsin L (Homo sapiens, UniProt P07711); test: CTSL1 protease inhibition – biochemical, QFRET, 1536-well, counter-screen for M1/M17 aminopeptidase inhibitor project, dose response (AID 2214)
# Chain of Procathepsin L (P07711 whole entry): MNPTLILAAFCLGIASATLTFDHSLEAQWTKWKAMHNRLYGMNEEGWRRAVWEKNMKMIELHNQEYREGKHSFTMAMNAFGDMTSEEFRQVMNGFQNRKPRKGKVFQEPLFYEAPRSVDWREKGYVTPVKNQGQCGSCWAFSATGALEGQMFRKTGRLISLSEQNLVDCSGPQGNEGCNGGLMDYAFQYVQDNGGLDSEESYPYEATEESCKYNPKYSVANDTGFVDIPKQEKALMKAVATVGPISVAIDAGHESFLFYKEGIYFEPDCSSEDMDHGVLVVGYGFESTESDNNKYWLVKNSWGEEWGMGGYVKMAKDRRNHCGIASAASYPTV
# [9] = target: Glyceraldehyde-3-phosphate dehydrogenase (Homo sapiens, UniProt P04406)
# Chain of Glyceraldehyde-3-phosphate dehydrogenase (P04406 whole entry): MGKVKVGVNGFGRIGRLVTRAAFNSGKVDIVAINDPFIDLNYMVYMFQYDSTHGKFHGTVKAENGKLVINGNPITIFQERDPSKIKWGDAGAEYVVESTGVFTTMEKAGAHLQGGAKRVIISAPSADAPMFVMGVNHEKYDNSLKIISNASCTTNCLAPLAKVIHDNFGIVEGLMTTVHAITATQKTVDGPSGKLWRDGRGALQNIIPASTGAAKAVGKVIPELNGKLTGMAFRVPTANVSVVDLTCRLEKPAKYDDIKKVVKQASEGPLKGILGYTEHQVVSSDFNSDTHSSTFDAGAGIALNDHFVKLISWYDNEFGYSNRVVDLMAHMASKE
# [10] = target: Alkaline phosphatase, placental type (Homo sapiens, UniProt P05187); test: human placental alkaline phosphatase inhibition – biochemical, luminescence, confirmation (AID 1512); format: functional
# Chain of Alkaline phosphatase, placental type (P05187 whole entry): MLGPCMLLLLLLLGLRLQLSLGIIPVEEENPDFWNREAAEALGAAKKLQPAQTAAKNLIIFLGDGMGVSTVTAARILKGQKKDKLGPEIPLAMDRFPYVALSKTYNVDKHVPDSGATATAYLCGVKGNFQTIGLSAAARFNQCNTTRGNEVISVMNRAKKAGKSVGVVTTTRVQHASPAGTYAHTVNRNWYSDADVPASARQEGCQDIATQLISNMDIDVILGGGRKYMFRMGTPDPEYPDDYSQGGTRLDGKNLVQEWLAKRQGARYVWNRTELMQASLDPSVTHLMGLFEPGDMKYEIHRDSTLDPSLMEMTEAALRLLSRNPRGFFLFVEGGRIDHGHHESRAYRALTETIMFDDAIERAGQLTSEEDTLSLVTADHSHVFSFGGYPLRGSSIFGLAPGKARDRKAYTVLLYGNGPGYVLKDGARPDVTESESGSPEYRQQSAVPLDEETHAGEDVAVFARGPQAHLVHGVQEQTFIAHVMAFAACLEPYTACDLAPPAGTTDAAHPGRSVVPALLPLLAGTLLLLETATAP
# [11] = target: T3, Alkaline phosphatase, tissue-nonspecific isozyme (Homo sapiens, UniProt P05186); test: potency against alkaline phosphatase TNAP – biochemical, luminescent, dose response, SAR follow-up (AID 1056)
# T3 sequence (P05186 whole entry): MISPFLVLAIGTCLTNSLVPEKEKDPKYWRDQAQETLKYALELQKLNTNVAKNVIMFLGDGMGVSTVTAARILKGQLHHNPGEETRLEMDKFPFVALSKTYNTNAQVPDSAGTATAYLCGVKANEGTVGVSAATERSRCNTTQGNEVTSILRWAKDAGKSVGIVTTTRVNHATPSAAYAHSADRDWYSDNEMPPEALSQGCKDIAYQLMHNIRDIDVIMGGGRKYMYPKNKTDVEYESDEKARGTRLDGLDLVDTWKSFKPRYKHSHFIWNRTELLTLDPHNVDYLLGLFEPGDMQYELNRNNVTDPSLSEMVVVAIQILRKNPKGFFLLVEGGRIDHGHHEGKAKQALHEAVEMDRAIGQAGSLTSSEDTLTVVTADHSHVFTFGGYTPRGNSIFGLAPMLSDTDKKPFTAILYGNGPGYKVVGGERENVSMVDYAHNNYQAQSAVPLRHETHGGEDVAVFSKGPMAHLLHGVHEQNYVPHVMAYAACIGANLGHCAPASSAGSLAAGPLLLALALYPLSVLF
smiles,measurement,setting,value
CCOC(=O)Cc1csc(NC(=O)c2ccc(S(=O)(=O)N3CCCC3)cc2)n1,EC50,[1],> 50 µM (active)
CC(=O)OCC1OC(C#Cc2ccc(Br)cc2)C=CC1OC(C)=O (stereo unspecified),AC50,[2],3.16 µM (inconclusive)
COc1cc(CN2CCN(c3cccc(Cl)c3)CC2)cc(OC)c1OC,AC50,[3],1.45 µM (active)
same,EC50,[4],5.95 µM (active)
same,EC50,[5],6.14 µM (active)
COC(=O)c1c(NC(=O)C2CCCCC2C(=O)O)sc2c1CCCCC2 (stereo unspecified),IC50,[6],> 73.5 µM (not active)
same,IC50,[7],1.49 µM (active)
same,IC50,[8],> 59.6 µM (not active)
CCCC(=O)N1CCN(c2ccc(NC(=S)NC(=O)c3cccc(C)c3)cc2)CC1,EC50,[1],> 50 µM (active)
COc1ccccc1-c1nnc(SCc2ccc(C(=O)O)cc2)[nH]1,IC50,[9],> 100 µM (not active)
same,IC50,[10],> 100 µM (inactive)
same,IC50,[11],16.3 µM (active)
CSc1n[nH]c(NC(C)=O)n1,IC50,[9],> 10 µM (inconclusive)
same,IC50,[11],> 10 µM (inactive)
O=S(=O)(Nc1ccncn1)c1cc(Cl)ccc1F,IC50,[9],> 100 µM (not active)
same,IC50,[11],> 100 µM (inactive)
